Assay results published in patent US7772408B1, “Substituted 5-alkoxypsoralens as inhibitors of potassium channel activity in lymphocytes and other cells” (The Regents of the University of California, priority 2002, dated 2010).
Where no end group is shown, it is not given here.

How the values were obtained:
[1] = molecular target: Kv1.3 (UniProt P16390); test: Whole-cell patch-clamp on a cell line stably expressing Kv1.3; format: cell-based; conditions: FIG. 1A / 1B
Description: (§1) Electrophysiology. All experiments were conducted in the whole-cell configuration of the patch-clamp technique with a holding potential of −80 mV on a cell line stably expressing Kv1.3. Pipette resistances averaged 2.0 MΩ, and series resistance compensation of 80% was employed when currents exceeded 2 nA. Kv1.3 currents were elicited by repeated 200 ms or 2 sec pulses from −80 mV to 40 mV, applied at intervals of 30 or 60 s.

[2] = molecular target: T1, Nav1.2 (Mus musculus, UniProt B1AWN6); test: Whole-cell patch-clamp, sodium channel Nav1.2 (N1E-115); format: cell-based; conditions: ratio Kd Nav1.2/Kd Kv1.3
T1 construct: endogenous in cells

[3] = LogP determined by HPLC; format: physicochemical
[4] = molecular target: Kv1.3 (UniProt P16390); test: Whole-cell patch-clamp on a cell line stably expressing Kv1.3; format: cell-based; parameters: Kd Kv1.3; other: whole-cell patch-clamp, cell line stably expressing Kv1.3; Kd Kv1.3; mean ± S.D; Kd Kv1.3 (cloned); other: whole-cell patch-clamp, three to five concentrations, n = 3; conditions: whole-cell patch-clamp, cell line stably expressing Kv1.3; mean ± S.D.
Description: as §1

[5] = molecular target: potassium channels; conditions: background statement; read-out: Kd, block of potassium channels; cited from earlier work
[6] = tested on: delayed-type hypersensitivity (DTH) response; conditions: mini-pigs, cited from earlier work

T1 sequence (B1AWN6 whole entry): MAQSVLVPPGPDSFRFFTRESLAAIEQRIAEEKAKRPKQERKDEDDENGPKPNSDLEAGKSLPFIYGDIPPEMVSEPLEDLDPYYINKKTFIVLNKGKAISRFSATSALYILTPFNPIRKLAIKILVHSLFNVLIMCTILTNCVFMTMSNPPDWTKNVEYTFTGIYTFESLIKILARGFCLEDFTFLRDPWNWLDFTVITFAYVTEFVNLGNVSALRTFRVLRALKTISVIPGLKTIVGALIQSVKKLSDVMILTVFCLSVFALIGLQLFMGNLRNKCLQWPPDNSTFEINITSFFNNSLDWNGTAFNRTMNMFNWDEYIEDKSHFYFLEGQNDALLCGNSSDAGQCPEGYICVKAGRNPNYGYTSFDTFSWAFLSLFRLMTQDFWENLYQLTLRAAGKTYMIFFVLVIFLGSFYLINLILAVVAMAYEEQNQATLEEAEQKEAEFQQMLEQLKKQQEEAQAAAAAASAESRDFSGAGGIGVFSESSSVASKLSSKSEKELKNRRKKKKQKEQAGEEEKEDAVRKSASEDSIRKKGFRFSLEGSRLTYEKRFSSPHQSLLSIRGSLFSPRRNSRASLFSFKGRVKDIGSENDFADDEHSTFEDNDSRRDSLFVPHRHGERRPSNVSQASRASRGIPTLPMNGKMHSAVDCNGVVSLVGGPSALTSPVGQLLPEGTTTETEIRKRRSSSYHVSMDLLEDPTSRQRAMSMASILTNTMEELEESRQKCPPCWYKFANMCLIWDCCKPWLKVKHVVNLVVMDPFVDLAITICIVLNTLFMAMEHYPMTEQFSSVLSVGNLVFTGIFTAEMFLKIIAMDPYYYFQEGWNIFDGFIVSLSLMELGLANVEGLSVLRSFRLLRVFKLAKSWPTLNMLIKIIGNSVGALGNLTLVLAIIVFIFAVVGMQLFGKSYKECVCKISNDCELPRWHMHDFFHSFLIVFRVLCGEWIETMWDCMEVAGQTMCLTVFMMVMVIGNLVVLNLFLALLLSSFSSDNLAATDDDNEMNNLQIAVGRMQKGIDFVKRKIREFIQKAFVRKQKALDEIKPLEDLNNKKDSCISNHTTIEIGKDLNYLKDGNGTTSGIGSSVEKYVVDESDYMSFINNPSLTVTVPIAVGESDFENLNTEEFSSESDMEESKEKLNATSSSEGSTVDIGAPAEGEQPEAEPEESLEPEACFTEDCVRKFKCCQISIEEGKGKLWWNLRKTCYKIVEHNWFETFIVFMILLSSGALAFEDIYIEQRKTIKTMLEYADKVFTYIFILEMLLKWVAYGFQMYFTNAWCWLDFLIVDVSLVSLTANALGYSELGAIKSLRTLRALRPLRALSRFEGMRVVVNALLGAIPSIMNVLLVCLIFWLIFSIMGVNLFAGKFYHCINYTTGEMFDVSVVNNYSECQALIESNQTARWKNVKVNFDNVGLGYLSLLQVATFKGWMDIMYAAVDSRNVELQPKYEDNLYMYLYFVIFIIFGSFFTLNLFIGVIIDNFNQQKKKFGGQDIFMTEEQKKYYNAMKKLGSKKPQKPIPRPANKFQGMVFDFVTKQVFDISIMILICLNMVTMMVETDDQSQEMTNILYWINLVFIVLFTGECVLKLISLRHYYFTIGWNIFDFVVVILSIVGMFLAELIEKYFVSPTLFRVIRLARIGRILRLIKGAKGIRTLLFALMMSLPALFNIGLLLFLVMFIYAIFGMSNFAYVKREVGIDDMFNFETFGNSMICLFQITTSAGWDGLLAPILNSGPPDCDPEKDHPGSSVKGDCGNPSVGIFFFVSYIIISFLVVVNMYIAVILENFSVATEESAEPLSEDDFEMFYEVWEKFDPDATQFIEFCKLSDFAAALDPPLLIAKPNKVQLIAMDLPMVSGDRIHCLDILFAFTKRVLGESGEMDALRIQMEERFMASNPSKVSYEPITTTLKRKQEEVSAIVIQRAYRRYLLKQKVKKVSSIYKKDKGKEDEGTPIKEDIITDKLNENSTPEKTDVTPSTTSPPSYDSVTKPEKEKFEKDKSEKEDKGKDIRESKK

Compound	inhibition of Kv1.3 current [1]	S (selectivity over Nav1.2), S = Kd Nav1.2/Kd Kv1.3 [2]	chromatographic logP [3]	melting point	Kd [4]	Kd [5]	suppression of primary DTH response [6]	suppression of secondary DTH response [6]
COc1c2ccoc2cc2oc(=O)ccc12 [5-MOP, 5-Methoxypsoralen]	–	–	–	–	–	100000 nM	–	–
O=c1ccc2c(OCC3CCCCC3)c3ccoc3cc2o1 [J 14, 4-Cyclohexylmethoxy-7H-furo[3,2-g][1]benzopyran-7-on]	–	48	4.41	153.5 °C	138 ± 17 nM	–	–	–
O=c1ccc2c(OCCCCc3ccccc3)c3ccoc3cc2o1 [J 19 (Psora 4), 4-(4-Phenylbutoxy)-7H-furo[3,2-g][1]benzopyran-7-one]	–	–	4.33	–	–	–	–	–
MgTX: Kv1.3 blocker (TIINVKCTSPKQCLPPCKAQFGQSAGAKCMNGKCKCYPH; ends and bridges not checked; cysteine pairing not given here; UniProt P40755 1-39, looked up)	–	–	–	–	–	–	effectively suppress	much less effective
O=c1ccc2c(OCc3ccc(-c4ccccc4)cc3)c3ccoc3cc2o1 [J 20, 5-Biphenylmethoxypsoralen]	–	286	4.4	187 °C	3.5 ± 0.5 nM	–	–	–
O=c1ccc2c(OCCC3CCCCC3)c3ccoc3cc2o1 [J 23, 4-(2-Cyclohexylethoxy)-7H-furo[3,2-g][1]benzopyran-7-on]	–	11	4.82	117 °C	132 ± 33 nM	–	–	–
O=c1ccc2c(OC(c3ccccc3)c3ccccc3)c3ccoc3cc2o1 [J 17, 4-Diphenylmethoxy-7H-furo[3,2-g][1]benzopyran-7-on]	–	38	4.12	173 °C	68 ± 12 nM	–	–	–
C=C1C[C@@]2(O)[C@@H]3CC[C@@]4(C)[C@@H]5C=CC(=O)OC[C@]5(C(C)OC(C)=O)[C@@H](OC(C)=O)[C@@H](OC(C)=O)[C@@H]4[C@@]3(C)[C@H](OC(C)=O)[C@H](OC(C)=O)[C@@]2(C)C2(C(=O)OC)O[C@H]12 (stereo partly drawn) [correolide]	–	–	–	–	–	–	effectively suppress	much less effective
O=c1ccc2c(OCCCCCc3ccccc3)c3ccoc3cc2o1 [J 22, 4-(5-Phenylpentoxy)-7H-furo[3,2-g][1]benzopyran-7-one]	–	262	4.71	94.5 °C	6.1 ± 0.7 nM	–	–	–
O=c1ccc2c(OCCCC3CCCCC3)c3ccoc3cc2o1 [J 21, 4-(3-Cyclohexylpropoxy)-7H-furo[3,2-g][1]benzopyran-7-on]	–	8	5.34	115 °C	144 ± 43 nM	–	–	–

Further lines, with some results ahead:

inhibition of Kv1.3 current [1]	S (selectivity over Nav1.2), S = Kd Nav1.2/Kd Kv1.3 [2]	chromatographic logP [3]	melting point	Kd [4]	Compound	Kd [5]	suppression of primary DTH response [6]	suppression of secondary DTH response [6]
dose-dependent inhibition	397	3.97	109 °C	6.3 ± 1 nM	O=c1ccc2c(OCCCc3ccccc3)c3ccoc3cc2o1 [J 15, 4-(3-Phenylpropoxy)-7H-furo[3,2-g][1]benzopyran-7-one]	–	–	–
–	25	3.87	141.5 °C	72 ± 12 nM	CC(COc1c2ccoc2cc2oc(=O)ccc12)c1ccccc1 (stereo not drawn) [J 12, R,S-4-(2-Phenylpropoxy)-7H-furo[3,2-g][1]benzopyran-7-on]	–	–	–
–	43	3.25	136 °C	350 ± 72 nM	O=c1ccc2c(OCc3ccccc3)c3ccoc3cc2o1 [5-BOP, 4-Benzyloxy-7H-furo[3,2-g][1]benzopyran-7-one]	–	–	–
–	41	3.55	154.5 °C	169 ± 16 nM	O=c1ccc2c(OCCc3ccccc3)c3ccoc3cc2o1 [J 09, 4-(2-Phenylethoxy)-7H-furo[3,2-g][1]benzopyran-7-one]	–	–	–
–	41	3.79	140 °C	172 ± 37 nM	O=c1ccc2c(OC/C=C/c3ccccc3)c3ccoc3cc2o1 [J 16, trans-4-(3-Phenyl-2-propenyloxy)-7H-furo[3,2-g][1]benzopyran-7-on]	–	–	–
